Data: ChEMBL document CHEMBL1145602, “Synthesis and DNA binding ability of cyclam-amino acid conjugates” (Bioorg Med Chem Lett, 2008)
Activity calls are given as the source filed them. The calls are words filed in the database; no cut-off is given here.

Test system: DNA
Test: Binding affinity to calf thymus DNA at pH 7 by thermal denaturation assay
Assay type: nucleic-acid assay
Settings: Bos taurus

| ΔTm [°C] | Activity | Compound |
| --- | --- | --- |
| 8 | – | O=C(CN1CCCNCCNCCCNCC1)N[C@@H](COCc1ccccc1)C(=O)O |
| – | Active | C[C@H](NC(=O)CN1CCCNCCNCCCNCC1)C(=O)O |
| – | Active | O=C(CN1CCCNCCNCCCNCC1)N[C@@H](Cc1ccccc1)C(=O)O |
